Experimental data published in ChEMBL document CHEMBL3046687, “New thiazolidine-2,4-diones as antimicrobial and cytotoxic agent” (Med Chem Res, 2012).
Values after ≈ are worked out from the molar mass of the structure shown.

Key:
Cryptococcus neoformans = test: Antimicrobial activity against Cryptococcus neoformans clinical isolate after 48 hr by two-fold serial dilution method; format: functional
Escherichia coli = test: Antimicrobial activity against Escherichia coli ATCC 35218 after 24 hr by two-fold serial dilution method; format: functional; conditions: ATCC 35218, 24 h
MCF7 = test: Cytotoxicity against Homo sapiens (human) MCF7 cells after 24 hr by MTT assay; format: functional, cell-based; conditions: MCF7, 24 h
Candida albicans = test: Antimicrobial activity against Candida albicans ATCC 2091 after 48 hr by two-fold serial dilution method; format: functional; conditions: ATCC 2091, 48 h
Staphylococcus aureus = test: Antimicrobial activity against Staphylococcus aureus ATCC 25923 after 24 hr by two fold serial dilution method; format: functional; conditions: ATCC 25923, 24 h
Pseudomonas aeruginosa = test: Antimicrobial activity against Pseudomonas aeruginosa ATCC 25619 after 24 hr by two-fold serial dilution method; format: functional; conditions: ATCC 25619, 24 h
HeLa = test: Cytotoxicity against Homo sapiens (human) HeLa cells after 24 hr by MTT assay; format: functional, cell-based
Aspergillus flavus = test: Antimicrobial activity against Aspergillus flavus NCIM 524 after 48 hr by two-fold serial dilution method; format: functional; conditions: NCIM 524, 48 h
HT-29 = test: Cytotoxicity against Homo sapiens (human) HT-29 cells after 24 hr by MTT assay; format: functional, cell-based; conditions: HT-29, 24 h
A549 = test: Cytotoxicity against Homo sapiens (human) A549 cells after 24 hr by MTT assay; format: functional, cell-based; conditions: A549, 24 h
Aspergillus niger = test: Antimicrobial activity against Aspergillus niger ATCC 6275 after 48 hr by two-foldserial dilution method; format: functional; conditions: ATCC 6275, 48 h
Enterococcus faecalis = test: Antimicrobial activity against Enterococcus faecalis ATCC 35550 after 24 hr by two-fold serial dilution method; format: functional; conditions: ATCC 35550, 24 h

| SMILES | MIC (Cryptococcus neoformans) [µg/mL] | MIC (Escherichia coli) [µg/mL] | IC50 (MCF7) [µM] | MIC (Candida albicans) [µg/mL] | MIC (Staphylococcus aureus) [µg/mL] | MIC (Pseudomonas aeruginosa) [µg/mL] | IC50 (HeLa) [µM] | MIC (Aspergillus flavus) [µg/mL] | IC50 (HT-29) [µM] | IC50 (A549) [µM] | MIC (Aspergillus niger) [µg/mL] | MIC (Enterococcus faecalis) [µg/mL] |
| --- | --- | --- | --- | --- | --- | --- | --- | --- | --- | --- | --- | --- |
| O=C(O)c1ccc(CN2C(=O)S/C(=C\c3cccs3)C2=O)cc1 | 32 (≈ 92.6 µM) | 8 (≈ 23.2 µM) | 76 | 32 (≈ 92.6 µM) | 16 (≈ 46.3 µM) | 16 (≈ 46.3 µM) | 76 | 8 (≈ 23.2 µM) | 88 | 80 | 8 (≈ 23.2 µM) | 32 (≈ 92.6 µM) |
| CC(=O)N1CCN(c2ccc(OCC3COC(Cn4ccnc4)(c4ccc(Cl)cc4Cl)O3)cc2)CC1 (stereo unspecified) [KETOCONAZOLE] | 2 (≈ 3.76 µM) | – | – | 2 (≈ 3.76 µM) | – | – | – | 1 (≈ 1.88 µM) | – | – | 2 (≈ 3.76 µM) | – |
| COc1cc(/C=C2\SC(=O)N(Cc3ccc(C(=O)O)cc3)C2=O)cc(OC)c1OC | 4 (≈ 9.31 µM) | 8 (≈ 18.6 µM) | 30 | 2 (≈ 4.66 µM) | 8 (≈ 18.6 µM) | 8 (≈ 18.6 µM) | 30 | 4 (≈ 9.31 µM) | 32 | 36 | 4 (≈ 9.31 µM) | 8 (≈ 18.6 µM) |
| O=C(O)c1ccc(CN2C(=O)S/C(=C\c3ccc(Br)cc3)C2=O)cc1 | 16 (≈ 38.3 µM) | 4 (≈ 9.56 µM) | 48 | 16 (≈ 38.3 µM) | 128 (≈ 306 µM) | 4 (≈ 9.56 µM) | 38 | 16 (≈ 38.3 µM) | 30 | 42 | 32 (≈ 76.5 µM) | 128 (≈ 306 µM) |
| O=C(O)c1ccc(CN2C(=O)S/C(=C\c3cccnc3)C2=O)cc1 | 32 (≈ 94 µM) | 32 (≈ 94 µM) | 100 | 32 (≈ 94 µM) | 128 (≈ 376 µM) | 32 (≈ 94 µM) | 88 | 16 (≈ 47 µM) | 90 | 75 | 16 (≈ 47 µM) | 128 (≈ 376 µM) |
| COc1ccc(/C=C2\SC(=O)N(Cc3ccc(C(=O)O)cc3)C2=O)cc1 | 16 (≈ 43.3 µM) | 32 (≈ 86.6 µM) | 48 | 16 (≈ 43.3 µM) | 16 (≈ 43.3 µM) | 32 (≈ 86.6 µM) | 40 | 32 (≈ 86.6 µM) | 44 | 44 | 32 (≈ 86.6 µM) | 16 (≈ 43.3 µM) |
| COc1cccc(/C=C2\SC(=O)N(Cc3ccc(C(=O)O)cc3)C2=O)c1 | 16 (≈ 43.3 µM) | 8 (≈ 21.7 µM) | 58 | 32 (≈ 86.6 µM) | 16 (≈ 43.3 µM) | 8 (≈ 21.7 µM) | 48 | 32 (≈ 86.6 µM) | 48 | 55 | 32 (≈ 86.6 µM) | 16 (≈ 43.3 µM) |
